In the assay the test system is human leutecyte strain cell (RPMI-8402). Description: Extinction effect of compatible administration of l-OHP and a compatible agent on tumor cells (compatible efficiency OE). Particulars: for Compatible Effects of l-OHP and Compatible Agent, Simultaneous Administration: both added day 1. The class given is cell-based. The procedure: In the evaluation of the extinction effect of the tumor cells of the respective combinations, a pure extinction effect produced by the compatible administration of the compatible agent and the l-OHP is calculated by subtracting an extinction effect of a control (no carcinostatic substance is employed).
The compatibly administration effect is calculated by employing an Equation (1) described later. When the value (%) calculated by this Equation is between 85 and 115%, the compatible administration effect is evaluated to be an additive effect. When the value is below 85%, it is evaluated to be below the additive effect. When the value is over 115%, it is evaluated to be a synergistic effect, ±15% is a reliability limit or a measurement error.
A target tumor cell was a human leutecyte strain cell (RPMI-8402 of Gibuko K.K.). To these cells was added blood serum of a cow embryo (15%, Gibuko K.K.) to prepare a cell floating liquid of which the number of the cells was 10^6/ml in a cultivation bottle (tradename; Sumiron of Sumitomo Bakelite o., Ltd.) having a volume of 6 ml. A plenty of the cultivation bottles having the cell floating liquid therein were prepared, and the following experiments were conducted while selecting one kind of a compatible agent among cisplatin, 5-FU, irinotecane, adriamycin, etoposide, mitomycin, mitoxantrone, bleomycin, vincristin and vindecin. The time schedules of the controls (no addition of medicines, addition of only the l-OHP and addition of only a compatible agent, and specified in the below items (1) to (4)) and of the compatible administration of the compatible agent and the l-OHP are shown in FIG. 10.
(1) No medicine was added (control).
(2) Only the l-OHP was added at a second day.
(3) A large amount of compatible agents were added at a first day ([…] of the cisplatin, 10 μg/ml of the 5-FU, 0.05 μg/ml of the adriamycin and 1 μg/ml of the etoposide, and for the comparison purpose, 0.05 μg/ml of the vincristin and 0.06 μg/ml of the vindecin). The adding amount of the irinotecano was fixed to 10 μg/ml, and the addition amount of the l-OHP was 5 μg/ml.
(4) A small amount of compatible agents were added at a first day (0.5 μg/ml of the cisplatin, 5 μg/ml of the 5-FU, 0.01 μg/ml of the adriamycin and 0.5 μg/ml of the etoposide, and for the comparison purpose, 0.01 μg/ml of the vincristin and 0.01 μg/ml of the vindecin). The adding amount of the irinotecane was fixed to 10 μg/ml, and the addition amount of the l-OHP was 1 μg/ml.
(5) The l-OHP and a large amount (the same as that of the above item (3) and so forth in the following items) of the compatible agents were simultaneously added at a first day.
(6) The l-OHP and a small amount (the same as that of the above item (4) and so forth in the following items) of the compatible agents were simultaneously added at a first day.
(7) The l-OHP was added at a first day and a large amount of the compatible agents were added at a second day.
(8) The l-OHP was added at a first day and a small amount of the compatible agents were added at a second day.
(9) The l-OHP was added at a first day and a large amount of the compatible agents were added at a third day.
(10) The l-OHP was added at a first day and a small amount of the compatible agents were added at a third day.
(11) The l-OHP was added at a first day and a large amount of the compatible agents were added at a fourth day.
(12) The l-OHP was added at a first day and a small amount of the compatible agents were added at a fourth day.
(13) A large amount of the compatible agents were added at a first day and the l-OHP was added at a second day.
(14) A small amount of the compatible agents were added at a first day and the l-OHP was added at a second day.
(15) A large amount of the compatible agents were added at a first day and the l-OHP was added at a third day.
(16) A small amount of the compatible agents were added at a first day and the l-OHP was added at a third day.

Where [1] appears, read: larger dosage of compatible agent (μg/ml: cisplatin 1, 5-FU 10, irinotecane 10, adriamycin 0.05, vincristin 0.05, vindecin 0.05, etoposide 1, bleomycin 10, mitoxantrone 0.1, mitomycine 1), l-OHP 1 μg/ml (5 μg/ml with irinotecane) added day 1.
[2] abbreviates: larger dosage of compatible agent (μg/ml: cisplatin 1, 5-FU 10, irinotecane 10, adriamycin 0.05, vincristin 0.05, vindecin 0.05, etoposide 1, bleomycin 10, mitoxantrone 0.1, mitomycine 1), l-OHP 1 μg/ml (5 μg/ml with irinotecane).
[3] abbreviates: larger dosage of compatible agent added day 1 (μg/ml: cisplatin 1, 5-FU 10, irinotecane 10, adriamycin 0.05, vincristin 0.05, vindecin 0.05, etoposide 1, bleomycin 10, mitoxantrone 0.1, mitomycine 1), l-OHP 1 μg/ml (5 μg/ml with irinotecane).
Where [4] appears, read: smaller dosage of compatible agent (μg/ml: cisplatin 0.5, 5-FU 5, irinotecane 10, adriamycin 0.01, vincristin 0.01, vindecin 0.01, etoposide 0.5, bleomycin 1, mitoxantrone 0.05, mitomycine 0.5), l-OHP 1 μg/ml added day 1.
[5] abbreviates: smaller dosage of compatible agent (μg/ml: cisplatin 0.5, 5-FU 5, irinotecane 10, adriamycin 0.01, vincristin 0.01, vindecin 0.01, etoposide 0.5, bleomycin 1, mitoxantrone 0.05, mitomycine 0.5), l-OHP 1 μg/ml.
Setting [6] is: smaller dosage of compatible agent added day 1 (μg/ml: cisplatin 0.5, 5-FU 5, irinotecane 10, adriamycin 0.01, vincristin 0.01, vindecin 0.01, etoposide 0.5, bleomycin 1, mitoxantrone 0.05, mitomycine 0.5), l-OHP 1 μg/ml.

Molecules are shown by their SMILES. Where “and” joins values, the source holds several entries; their conditions need not be identical. Equal values may be shown once. Entries after “also recorded” stand apart in the source; their conditions may differ.

With `COc1cc([C@@H]2c3cc4c(cc3[C@@H](O[C@@H]3O[C@@H]5CO[C@@H](C)O[C@H]5[C@H](O)[C@H]3O)[C@H]3COC(=O)[C@H]23)OCO4)cc(OC)c1O` [etoposide], the “compatible administration effect with l-OHP, summary in words” value (“compatible administration effect” below) is “the additive effect or the synergistic effect regardless of the administration method and the dosage in almost all the cases; also recorded: synergistic effects can be obtained in almost all the combinations when the l-OHP is added later”. Moreover, under setting [1], the “Compatible Effects of l-OHP and Compatible Agent, Time Lag Administration, Addition Administration of Compatible Agent day 2” value (“Compatible Effects … of Compatible Agent day 2” below) is on record as “◯ (◯: Additive Effect)”; the “Compatible Effects of l-OHP and Compatible Agent, Time Lag Administration, Addition Administration of Compatible Agent day 3” value (“Compatible Effects … of Compatible Agent day 3” for short) is “◯ (◯: Additive Effect)”; the “Compatible Effects of l-OHP and Compatible Agent, Time Lag Administration, Addition Administration of Compatible Agent day 4” value (from here on “Compatible Effects … of Compatible Agent day 4”) is given as “Δ (Δ: Below Additive Effect)”. Moreover, the “Compatible Effects of l-OHP and Compatible Agent, Simultaneous Administration” value (from here on “Compatible Effects … Simultaneous Administration”) under setting [2] was “◯ (◯: Additive Effect)”. For the same compound, under setting [3], the “Compatible Effects of l-OHP and Compatible Agent, Time Lag Administration, Addition Administration of l-OHP day 2” value (“Compatible Effects … of l-OHP day 2” for short) is given as “• (•: Synergistic Effect)”; the “Compatible Effects of l-OHP and Compatible Agent, Time Lag Administration, Addition Administration of l-OHP day 3” value (shortened to “Compatible Effects … of l-OHP day 3”) is “• (•: Synergistic Effect)”; the “Compatible Effects of l-OHP and Compatible Agent, Time Lag Administration, Addition Administration of l-OHP day 4” value (“Compatible Effects … of l-OHP day 4” below) is on record as “• (•: Synergistic Effect)”. Also, under setting [4], the “Compatible Effects … of Compatible Agent day 2” value is reported as “◯ (◯: Additive Effect)”; the “Compatible Effects … of Compatible Agent day 3” value is given as “• (•: Synergistic Effect)”; the “Compatible Effects … of Compatible Agent day 4” value is recorded as “◯ (◯: Additive Effect)”. For the same compound, the “Compatible Effects … Simultaneous Administration” value under setting [5] is reported as “◯ (◯: Additive Effect)”. Under setting [6], the “Compatible Effects … of l-OHP day 2” value is listed as “• (•: Synergistic Effect)”; the “Compatible Effects … of l-OHP day 3” value is reported as “• (•: Synergistic Effect)”; the “Compatible Effects … of l-OHP day 4” value is reported as “• (•: Synergistic Effect)”.

With `CCc1c2c(nc3ccc(OC(=O)N4CCC(N5CCCCC5)CC4)cc13)-c1cc3c(c(=O)n1C2)COC(=O)[C@]3(O)CC` [irinotecane], the “compatible administration effect” value was “the additive effect or the synergistic effect regardless of the administration method and the dosage in almost all the cases; also recorded: synergistic effects can be obtained in all the combinations when the l-OHP is added later”. Also, under setting [1], the “Compatible Effects … of Compatible Agent day 2” value is listed as “◯ (◯: Additive Effect)”; the “Compatible Effects … of Compatible Agent day 3” value is listed as “◯ (◯: Additive Effect)”; the “Compatible Effects … of Compatible Agent day 4” value is “Δ (Δ: Below Additive Effect)”. Also, the “Compatible Effects … Simultaneous Administration” value under setting [2] is reported as “◯ (◯: Additive Effect)”. For the same compound, under setting [3], the “Compatible Effects … of l-OHP day 2” value is on record as “◯ (◯: Additive Effect)”; the “Compatible Effects … of l-OHP day 3” value was “• (•: Synergistic Effect)”; the “Compatible Effects … of l-OHP day 4” value is given as “• (•: Synergistic Effect)”. Also, under setting [4], the “Compatible Effects … of Compatible Agent day 2” value was “◯ (◯: Additive Effect)”; the “Compatible Effects … of Compatible Agent day 3” value is “◯ (◯: Additive Effect)”; the “Compatible Effects … of Compatible Agent day 4” value is reported as “◯ (◯: Additive Effect)”. For the same compound, the “Compatible Effects … Simultaneous Administration” value under setting [5] was “◯ (◯: Additive Effect)”. Besides, under setting [6], the “Compatible Effects … of l-OHP day 2” value was “• (•: Synergistic Effect)”; the “Compatible Effects … of l-OHP day 3” value was “• (•: Synergistic Effect)”; the “Compatible Effects … of l-OHP day 4” value is given as “• (•: Synergistic Effect)”.

In the case of `O=c1[nH]cc(F)c(=O)[nH]1` [5-FU, 5-fluorouracil], the “compatible administration effect” value was “twice an expected value; also recorded: synergistic effects can be obtained in almost all the administration conditions”. Further, the “compatible administration effect” value (listed as 6-FU) is “the additive effect or the synergistic effect regardless of the administration method and the dosage in almost all the cases”. Further, under setting [1], the “Compatible Effects … of Compatible Agent day 2” value is given as “• (•: Synergistic Effect)”; the “Compatible Effects … of Compatible Agent day 3” value is recorded as “• (•: Synergistic Effect)”; the “Compatible Effects … of Compatible Agent day 4” value was “• (•: Synergistic Effect)”. Also, the “Compatible Effects … Simultaneous Administration” value under setting [2] is recorded as “• (•: Synergistic Effect)”. Moreover, under setting [3], the “Compatible Effects … of l-OHP day 2” value is “• (•: Synergistic Effect)”; the “Compatible Effects … of l-OHP day 3” value is “• (•: Synergistic Effect)”; the “Compatible Effects … of l-OHP day 4” value is “• (•: Synergistic Effect)”. Besides, the “effect as % of the expected value (compatible efficiency)” value (simultaneous administration with l-OHP, which dosage gives which value is not given) was 180% and 150%. Further, under setting [4], the “Compatible Effects … of Compatible Agent day 2” value is reported as “◯ (◯: Additive Effect)”; the “Compatible Effects … of Compatible Agent day 3” value was “• (•: Synergistic Effect)”; the “Compatible Effects … of Compatible Agent day 4” value is reported as “• (•: Synergistic Effect)”. In addition, the “Compatible Effects … Simultaneous Administration” value under setting [5] is listed as “• (•: Synergistic Effect)”. Further, under setting [6], the “Compatible Effects … of l-OHP day 2” value is on record as “• (•: Synergistic Effect)”; the “Compatible Effects … of l-OHP day 3” value is on record as “◯ (◯: Additive Effect)”; the “Compatible Effects … of l-OHP day 4” value is “• (•: Synergistic Effect)”.

The values are drawn from patent US6518278B1, “Carcinostatic substance for compatible administration, process of administrating same and process of rapidly inspecting same” (Debio Pharm S.A., priority 1994, dated 2003).
